# Test results published in patent US20040234610A1, “Medical device and method for inhalation of aerosolized drug with heliox” (priority 2001, published 2004).
# Test system: adult patients with severe acute exacerbation of asthma
# Assay: Randomized study, albuterol nebulized with heliox 80:20 vs oxygen (control) through semi-closed system, FEV1 spirometry
# Assay type: in vivo, human
# Description: Forty-five patients were randomized to receive albuterol nebulized with oxygen (control) versus heliox. At baseline, demographics, outpatient asthma medications, vital signs, oxygen saturation and forced expiratory volume in one second (FEV1) were not different between the two groups. Three consecutive albuterol treatments were given to each group.
# The study subjects were adult patients who presented to the Emergency Department at the University of Chicago Medical Center for a severe acute exacerbation of asthma. The study was approved by the Institutional Review Board and all patients enrolled gave written informed consent before beginning the study. Patients 50 years of age or under meeting American Thoracic Society criteria for the diagnosis of asthma were eligible. To assure that only those with severe persistent asthma were studied, only those patients with baseline forced expiratory volume in one second (FEV1) less than fifty percent predicted were enrolled in the study.
# The heliox delivery system consisted of a facemask connected to a Y-piece with the nebulizer (Airlife™ Misty-Neb™ Nebulizer) on one limb and a non-rebreather bag on the other limb (as shown in FIG. 1). Heliox flow to the nebulizer was set at 10 liters/minute (via an oxygen calibrated flow meter thus equivalent to 18 L/min Heliox flow). A separate flow of 10 liters/minute of heliox (via an oxygen calibrated flow meter thus equivalent to 18 L/min Heliox flow) was delivered to the non-rebreather bag. […] Each treatment continued until the nebulizer was dry—a period of approximately ten minutes, followed by a fifteen minute washout period. The total time for the study was approximately 90 minutes. Corticosteroid therapy for asthma exacerbations was directed by the emergency room physicians, who were not directly involved in the study.
# To assure its accuracy for the purpose of this study, the spirometer was tested every other week using a three liter syringe. In addition, the accuracy of FEV, recordings was tested by having subjects perform forced expiratory maneuvers through the portable spirometer at varying flow rates while it was in-line with a Medical Graphics 1070 pulmonary function testing system. (This system was calibrated daily.) This test was also performed every other week for the first three months of the study and monthly thereafter.
# Patients performed a minimum of three forced expiratory maneuvers with values recorded according to the American Thoracic Society recommendations (American Thoracic Society: Standardization of spirometry—1994 update, Am. J. Respir. Crit. Care Med. 152:1107-36 (1995)). All spirometric measurements were made by investigators who were blinded to the gas used for albuterol nebulization. […] Patients were not told explicitly which treatment limb they were randomized to; however, because of potential voice changes while breathing heliox, it was not possible to assure that patients were blinded to which therapy they received.
# Demographic data, chronic asthma medications, emergency room corticosteroid administration, vital signs (heart rate, mean arterial pressure, respiratory rate), oxygen saturation by pulse oximetry, emergency room length of stay and hospital admissions from the emergency room were recorded for all patients. Data are expressed as mean±SD when normally distributed and median (interquartile range) when not normally distributed. Interval data were compared using a two-tailed Student's t test or Mann Whitney U test according to normality of distribution, categorical data were compared using Chi square or Fisher Exact test when appropriate. […] The Student-Newman-Keuls test was used to compare differences between heliox and control groups after each nebulization treatment when appropriate. […] A 25% difference in percent change in FEV1 between the control and heliox groups was considered clinically important. […]
smiles,measurement,setting,value
CC(C)(C)NCC(O)c1ccc(O)c(CO)c1 (stereo not drawn) [albuterol],median percent change in FEV1 from baseline,"control group (nebulized with oxygen 10 L/min), after albuterol treatment 1",14.6%
same,median percent change in FEV1 from baseline,"control group (oxygen), after treatment 2",22.7%
same,median percent change in FEV1 from baseline,"control group (oxygen), after treatment 3",26.6%
same,median percent change in FEV1 from baseline,"heliox group (nebulized with heliox 80:20), after albuterol treatment 1, P=0.007 vs control",32.4%
same,median percent change in FEV1 from baseline,"heliox group, after treatment 2, P=0.007 vs control",51.5%
same,median percent change in FEV1 from baseline,"heliox group, after treatment 3, P=0.016 vs control",65.1%
